Reference: paper PMC7464559, “Synthesis, Optimization, Antifungal Activity, Selectivity, and CYP51 Binding of New 2-Aryl-3-azolyl-1-indolyl-propan-2-ols” (Pharmaceuticals, 2020)
≈ marks a conversion by molar mass, not a printed value. Like-named read-outs stand apart in the source and are kept apart here.

Legend:
C. albicans CA98001 = experiment: Anti-Candida in vitro assay (Alamar Blue), C. albicans CA98001; format: cell-based; settings: MIC = IC80, 24 h at 37 °C, mean of triplicate; for MIC: Candida albicans, CA98001, 24 h
Description: (§1) Test fungal strains were obtained from the American Type Culture Collection (ATCC) or were clinical isolates from the Laboratory of Parasitology and Medical Mycology, Centre Hospitalier Universitaire (CHU) of Nantes. The strains were maintained on Sabouraud agar slants and were subcultured 24 h before used. The activity of the target compounds 8a–g and 11a–m was determined by the method previously described. Briefly, molecules were diluted in RPMI 1640 medium supplemented with 0.165 M morpholinopropanesulphonic acid (Sigma-Aldrich, Saint-Quentin Fallavier, France), 2% glucose, and antibiotics. Candida suspensions were prepared in RPMI 1640 medium (Sigma-Aldrich, Saint-Quentin Fallavier, France) adjusted to give a final concentration of 10^3 cells/mL, and a 96-well microplate (Nunc, D. Dutscher, Brumath, France) was seeded with 100 µL. Each concentration of molecules (100 µL) to be tested was added (in triplicate) and plates were incubated at 37 °C for 24 h. The cellular viability was evaluated on the Fluorolite 1000 (Dynatech, France) with an excitation at 550 nm and an emission at 590 nm after a 4 h incubation with 10 µL of Alamar Blue®. […] MIC was expressed as the mean of the triplicate values. KTC and FLC were used as standards.

[1] = system: ATCC2091 Candida albicans strain; experiment: Anti-Candida in vitro assay, ATCC2091; format: cell-based; settings: Candida albicans ATCC2091, mean of triplicate; read-out: MIC (IC80) ATCC2091
Description: as §1

[2] = system: CA98002 (Candida albicans); experiment: Anti-Candida in vitro assay, CA98002; format: cell-based; settings: Candida albicans CA98002, mean of triplicate; read-out: MIC (IC80) CA98002
Description: as §1

[3] = system: CA98005 (Candida albicans); experiment: Anti-Candida in vitro assay, CA98005; format: cell-based; settings: Candida albicans CA98005, mean of triplicate; read-out: MIC (IC80) CA98005
Description: as §1

[4] = system: ATCC6258 Candida krusei strain; experiment: Anti-Candida in vitro assay, ATCC6258; format: cell-based; settings: Pichia kudriavzevii; Candida krusei ATCC6258, mean of triplicate; read-out: MIC (IC80) ATCC6258
Description: as §1

CK98002 (Candida krusei) = experiment: Anti-Candida in vitro assay, CK98002; format: cell-based; settings: Pichia kudriavzevii; Candida krusei CK98002, mean of triplicate; read-out: MIC (IC80) CK98002
Description: as §1

CK98003 (Candida krusei) = experiment: Anti-Candida in vitro assay, CK98003; format: cell-based; settings: Pichia kudriavzevii; Candida krusei CK98003, mean of triplicate; read-out: MIC (IC80) CK98003
Description: as §1

[5] = system: CL98001 (Candida lusitaniae); experiment: Anti-Candida in vitro assay, CL98001; format: cell-based; settings: Clavispora lusitaniae; Candida lusitaniae CL98001, mean of triplicate; read-out: MIC (IC80) CL98001
Description: as §1

[6] = system: ATCC90018 Candida parapsilosis strain; experiment: Anti-Candida in vitro assay, ATCC90018; format: cell-based; settings: Lodderomyces parapsilosis; Candida parapsilosis ATCC90018, mean of triplicate; read-out: MIC (IC80) ATCC90018
Description: as §1

MRC5 toxicity assay = format: cell-based, human; settings: human, MRC-5 cells, 96-h incubation, mean of triplicate, read-out: Cytotoxicity IC50 on MRC-5 cells
Description: The cytotoxicity of compounds was studied with human fibroblast (MRC5). Cells were grown in RPMI 1640 medium (Sigma-Aldrich, Saint-Quentin Fallavier, France) supplemented with 10% fetal bovin serum (Sigma–Aldrich). Drugs were tested at three concentrations (100, 10, and 1 µM) in triplicate. After a 96-h incubation time, cytotoxicity was measured on the Fluorolite 1000 (Dynatech, Guyancourt, France) after a 4-h incubation time with Uptiblue® (Interchim, Montluçon, France). Inhibitory concentration 50 is a mean of triplicate values. A toxicity index was determined as follow: IC50 against MRC5/Geometric mean of the MICs against Candida spp..

CYP11B1 = system: CYP11B1; parameters: method as in PMID 7663533; settings: cited from earlier work
CYP11B2 = system: CYP11B2; parameters: method as in PMID 21193036; settings: another similar study; cited from earlier work

Compound | MIC (C. albicans CA98001) | MIC (= IC80) C. albicans CA98001 (C. albicans CA98001) | MIC [1] | MIC [2] | MIC [3] | MIC [4] | MIC (CK98002 (Candida krusei)) | MIC (CK98003 (Candida krusei)) | MIC [5] | MIC [6] | IC50 at 96 h (MRC5 toxicity assay; MRC-5 human fetal lung fibroblast cells) | CYP11B1 inhibition (CYP11B1) | IC50 at 96 h (MRC5 toxicity assay) | CYP11B2 inhibition (CYP11B2)
OC(Cn1cncn1)(Cn1cncn1)c1ccc(F)cc1F [FLC, fluconazole, reference compound] | 0.02 µg/mL (≈ 0.0653 µM) | 0.02 µg/mL (≈ 0.0653 µM) | 0.07 µg/mL (≈ 0.229 µM) | 1 µg/mL (≈ 3.27 µM) | 0.57 µg/mL (≈ 1.86 µM) | 7.5 µg/mL (≈ 24.5 µM) | 2 µg/mL (≈ 6.53 µM) | 6.7 µg/mL (≈ 21.9 µM) | 0.55 µg/mL (≈ 1.8 µM) | 0.6 µg/mL (≈ 1.96 µM) | > 100 µM | minor inhibitor | – | –
CC(=O)N1CCN(c2ccc(OCC3COC(Cn4ccnc4)(c4ccc(Cl)cc4Cl)O3)cc2)CC1 (stereo not drawn) [KTC, ketoconazole, reference compound] | 0.005 µg/mL (≈ 0.00941 µM) | – | 0.008 µg/mL (≈ 0.0151 µM) | 0.009 µg/mL (≈ 0.0169 µM) | 0.006 µg/mL (≈ 0.0113 µM) | 0.079 µg/mL (≈ 0.149 µM) | 0.37 µg/mL (≈ 0.696 µM) | 0.43 µg/mL (≈ 0.809 µM) | 0.007 µg/mL (≈ 0.0132 µM) | 0.064 µg/mL (≈ 0.12 µM) | – | strong inhibitor | 69.1 µM | 100%
